How the values were obtained:
MCF-7 cells = test: MTT cell viability assay on MCF-7 breast cancer cells; format: cell-based, human; details: 72 hours
Experimental: (§1) HeLa, MCF-7 and MDA-MB-231 cells were obtained from Sigma-Aldrich and maintained as reported previously. MRC-5, PC-3, DU 145 cells were purchased from American Type Culture Collection (ATCC, Manassas, VA, USA). PC-3 and DU 145 were maintained in RPMI medium (Sigma-Aldrich) whereas MRC-5 cells were maintained in DMEM medium (Sigma-Aldrich). All media were complemented with 10% Fetal bovine serum (FBS, Sigma-Aldrich) 2 mM L-glutamine, 0.01% streptomycin and 0.005% ampicillin (Sigma-Aldrich). Cells were cultured under standard conditions in a 37 °C incubator containing 5% CO2 in 95% humidity.
(§2) Each test compound was dissolved in cell culture grade DMSO (Molar Chemicals, Halásztelek, Hungary) in a final concentration of […]. Antiproliferative action of the synthesized steroids was investigated by MTT assay. An amount of 5000 cells/well were seeded into 96 well plates. Twenty-four hours post seeding, all cell lines were treated with each compound in 10 and 30 μM concentrations for 72 hours. […] After 72 hours, cells were washed with PBS and incubated with culture medium containing 0.5 mg/mL MTT (3-(4, 5-dimethylthiazolyl-2)-2,5-diphenyltetrazolium bromide) reagent (SERVA, GmbH, Heidelberg, Germany) for an hour at 37 °C. Formazan crystals were solubilized in DMSO and extinction was measured at 570 nm using a Synergy HTX plate reader (BioTech-Hungary, Budapest, Hungary). MTT assays were performed at least three times using four independent biological replicates. Data were normalized to solvent controls and the graphical representation of the obtained data as well as the calculation of IC50 values were carried out by GraphPad Prism 7 software (GraphPad Software; San Diego, CA, USA).

DU 145 cells = test: MTT cell viability assay on DU 145 prostate cancer cells; format: cell-based, human; details: 72 hours
Experimental: as §1, §2

MRC-5 cells = test: MTT cell viability assay on non-cancerous MRC-5 fibroblasts; format: cell-based; details: 72 hours, MTT
Experimental: as §1, §2

HeLa cells = test: MTT cell viability assay on HeLa cervical cancer cells; format: cell-based, human; details: 72 hours
Experimental: as §1, §2

MDA-MB-231 cells = test: MTT cell viability assay on MDA-MB-231 breast cancer cells; format: cell-based, human; details: 72 hours
Experimental: as §1, §2

PC-3 cells = test: MTT cell viability assay on PC-3 prostate cancer cells; format: cell-based, human; details: for Mean values (%) of primary growth inhibitory screen (viability in %), PC-3: 72 hours, MTT
Experimental: as §1, §2

| SMILES | Mean values (%) of primary growth inhibitory screen (viability in %), MCF-7 (MCF-7 cells; 10 µM) [%] | Mean values (%) of primary growth inhibitory screen (viability in %), MCF-7 (MCF-7 cells; 30 µM) [%] | Mean values (%) of primary growth inhibitory screen (viability in %), DU 145 (DU 145 cells; 10 µM) [%] | Mean values (%) of primary growth inhibitory screen (viability in %), DU 145 (DU 145 cells; 30 µM) [%] | Mean values (%) of primary growth inhibitory screen (viability in %), MRC-5 (MRC-5 cells; 10 µM) [%] | Mean values (%) of primary growth inhibitory screen (viability in %), MRC-5 (MRC-5 cells; 30 µM) [%] | Mean values (%) of primary growth inhibitory screen (viability in %), HeLa (HeLa cells; 10 µM) [%] | Mean values (%) of primary growth inhibitory screen (viability in %), HeLa (HeLa cells; 30 µM) [%] | Mean values (%) of primary growth inhibitory screen (viability in %), MDA-MB-231 (MDA-MB-231 cells; 10 µM) [%] | Mean values (%) of primary growth inhibitory screen (viability in %), MDA-MB-231 (MDA-MB-231 cells; 30 µM) [%] | Mean values (%) of primary growth inhibitory screen (viability in %), PC-3 (PC-3 cells; 10 µM) [%] | Mean values (%) of primary growth inhibitory screen (viability in %), PC-3 (PC-3 cells; 30 µM) [%] | antiproliferative potency against PC-3 prostate cancer cells compared to MRC-5 non-cancerous fibroblasts (PC-3 cells; 10 µM, primary screen) |
| --- | --- | --- | --- | --- | --- | --- | --- | --- | --- | --- | --- | --- | --- |
| Cc1ccc(-n2nc3c(c2C)CC2(C)C(CCC4C5CCC(=O)C5(C)CCC42)C3)cc1 (stereo not drawn) [5c, 1′-(4″-Tolyl)-5′-methylpyrazolo[3′,4′:3,2]-5α-androst-17-one] | 63.6 | 48.7 | 86.3 | 51.1 | 89.1 | 62.5 | 46.3 | 38.5 | 78.7 | 66.2 | 68.1 | 43.6 |  |
| Cc1c2c(nn1-c1ccc(F)cc1)CC1CCC3C4CCC(O)C4(C)CCC3C1(C)C2 (stereo not drawn) [4f, 17β-Hydroxy-1′-(4″-fluorophenyl)-5′-methylpyrazolo[3′,4′:3,2]-5α-androstane] | 57.1 | 5.4 | 71.6 | 3.9 | 68.7 | 14.8 | 46.1 | 7.6 | 83.4 | 32.0 | 41.8 | 5.1 |  |
| Cc1ccc(-n2nc3c(c2C)CC2(C)C(CCC4C5CCC(O)C5(C)CCC42)C3)cc1 (stereo not drawn) [4c, 17β-Hydroxy-1′-(4″-tolyl)-5′-methylpyrazolo[3′,4′:3,2]-5α-androstane] | 49.5 | 5.4 | 87.3 | 5.1 | 75.0 | 37.5 | 56.1 | 8.0 | 81.7 | 12.0 | 44.0 | 4.2 | significantly higher |
| Cc1ccc(-n2nc3c(c2C)C[C@@]2(C)[C@@H](CC[C@@H]4[C@@H]2CC[C@]2(C)C(=O)CC[C@@H]42)C3)c(C)c1 [5d, 1′-(2″,4″-Dimethylphenyl)-5′-methylpyrazolo[3′,4′:3,2]-5α-androst-17-one] | 56.3 | 13.3 | 65.6 | 10.0 | 80.1 | 21.3 | 39.5 | 30.7 | 77.2 | 54.1 | 52.1 | 14.6 |  |
